# Measured values published in patent US20210214368A1, “COMPOUNDS FOR THIOL-TRIGGERED COS AND/OR H2S RELEASE AND METHODS OF MAKING AND USING THE SAME” (University of Oregon, priority 2018, published 2021).
# Tests used:
# [1] = system: RAW 264.7 cells; assay: Anti-inflammatory activity: LPS-induced NO2- accumulation (Griess); type: cell-based; conditions: pretreatment 25 μM for 2 hours, then LPS 0.500 μg/mL 24 hours
# Experimental: Representative Procedure for Determining Anti-Inflammatory Activities of Compound Embodiments and Control Compounds—Macrophage RAW 264.7 cells were seeded in a 24-well plate (5×10^5 cells/well) containing 0.500 mL of DMEM and incubated at 37° C. under 5% CO2 for 24 hours. The confluent cells were washed with PBS and incubated with either compound 202a (0-25.0 μM), or GYY4137 (25.0 μM) at 37° C. for 2 hours. Compounds were then removed by washing cells with PBS and these pretreated cells were incubated in FBS-free DMEM containing LPS (0.500 μg/mL) for 24 hours. NO2— levels were measured by using a Griess Reagent Kit.
# [2] = Thiol-triggered H2S release in PBS containing CA (MB assay); conditions: for GSH-triggered H2S release: PBS containing GSH and CA
# Experimental: To evaluate thiol effects on COS/H2S release from cyclic perthiocarbamate compound embodiments, compound 306a (50 μM) was incubated in PBS (pH 7.4, 10 mM) containing Cys or GSH (up to 4.0 mM) and CA (25 μg/mL) and H2S release was monitored by MB assay. […] Additionally, other thiol triggers, such as cysteine, homocysteine, and N-acetyl cysteine, were combined with compound 306a to evaluate if they would trigger the compound to release H2S.
# In this example, GSH-triggered H2S release from compound 900 was evaluated. […] To improve the H2S releasing capacity of ATB-346, compound 900 was made by reacting ATB-346 with chlorocarbonyl sulfenyl chloride reagent (see Scheme 9). The resultant compound 900 was then added to PBS containing GSH and CA.
# Release of H2S from compound 404c (25 μM) in the presence of L-cysteine or reduced glutathione (GSH) (500 μM, 20 equiv.) measured by the spectrophotometric methylene blue assay, with results shown in FIG. 17.
# In this example, additional compounds, such as cyclic sulfenyl thiocarbamate compounds 306a-306e, were evaluated for their ability to release H2S upon exposure to a biological thiol, cysteine.
# With the hybrid NSAID in hand, COS/H2S release in aqueous buffer was evaluated.
# [3] = system: RAW 264.7 cells; conditions: 100-1000 μM and 24-hour incubation; cited from earlier work
# [4] = Cys-triggered fluorescence turn on in PBS; conditions: for fluorescence response to Cys: compound 10 μM, Cys 100 μM, PBS pH 7.4
# Experimental: Representative Measurement of Fluorescence Intensity of Compound Embodiments—A freshly prepared compound 202a stock solution (3.00 μL, 10.0 mM in DMSO) was added to 3.00 mL of PBS (Ph 7.40, 10.0 Mm) containing CA (25.0 μg/mL) in a quartz fluorescence cuvette. A Cys stock solution (10.0 mM) was then added to reach the desired working concentration. The reaction solution was excited at 490 nm and the fluorescence intensity (500-650 nm) was measured and recorded using a Quanta Master 40 spectrofluorometer.
# In this example, it was determined that Cys-induced compound 202a activation can be monitored by tracking the fluorescein formation and accompanied fluorescence response, and, in some embodiments, the reaction proceeds more quickly when higher concentrations of thiols are added. Time-dependent fluorescence spectra (FIG. 2A) and UV-vis spectra (FIG. 2B) of a particular compound embodiment, compound 202a, (10 μM) in PBS buffer (pH 7.4, 10 mM) containing Cys (100 μM) and CA (25 μg/mL) were obtained using a fluorescence spectrometer. […] Fluorescein formation was also confirmed by UV-vis spectroscopy under the identical conditions (FIG. 2B). Specifically, a freshly prepared compound 202a stock solution (3.00 μL, 10.0 mM in DMSO) was added to 3.00 mL of PBS (pH 7.40, 10.0 mM) containing CA (25.0 μg/mL) in a quartz UV cuvette. A Cys stock solution (30.0 μL, 10.0 mM in H2O) was then added. The absorbance (350-600 nm) was measured for 3 hours using a Cary 100 spectrometer. A Cys-dependent fluorescence enhancement was observed when treating compound 202a (10 μM) with increasing concentrations of Cys (1-20 equiv.), indicating a high sensitivity of compound 202a towards Cys. […] In addition, to confirm the H2S delivery from compound 202a, compound 202a (10 μM) was treated with Cys (100 μM) in PBS containing CA (25 μg/mL) and quantified H2S release using the MB assay. […] Optical measurement conditions were as follows: […], and slit width=0.3 mm.
# [5] = Spectroscopic properties in PBS buffer (pH 7.4, 10 mM); type: physicochemical; conditions: PBS (pH 7.4, 10 mM)
# Experimental: In this example, the spectroscopic properties in PBS buffer (pH 7.4, 10 mM) of compounds 202a-202d, and control compound 204. Compounds 202a-202c and control compound 204 were not absorptive in the visible region and are all these compounds were not fluorescent because the fluorescein unit is locked in the closed lactone form.
# [6] = system: porcine liver esterase (PLE); assay: Esterase stability of the sulfenyl thiocarbonate group (fluorescence); type: in vitro ADME; conditions: compound 10 μM, PLE 1 U/mL, 2-hour incubation
# Experimental: Compound 202a also (10 μM) was incubated with RSONs (100 μM), such as H2O2, ClO^−, O2^−, TBHP, Ser, Lys, Gly, GSSG, and GSNO, and COS/H2S release was monitored by tracking the fluorescein formation. […] Because the carbonate functional group may be sensitive to esterase-catalyzed hydrolysis, the esterase stability of the sulfenyl thiocarbonate group also was evaluated by incubating compound 202a (10 μM) with porcine liver esterase (PLE, 1 U/mL).
# [7] = system: HeLa cells; assay: Cytotoxicity in HeLa cells (CCK-8); type: cell-based; conditions: 6.25-50.0 μM, 30 minutes
# Experimental: In this example, H2S delivery from compound 202a in HeLa cells was evaluated. To determine whether compound embodiments of the present disclosure can be activated to release COS/H2S in cellular environment, HeLa cells were treated with compound 202a under different conditions. HeLa cells were treated with compound 202a (50 μM) or compound 204 (50 μM) and H2S release was monitored using C7-Az, a H2S-responsive fluorescent probe. […] To confirm that compound 202a was not cytotoxic, confluent HeLa cells were incubated in FBS-free DMEM containing vehicle (0.5% DMSO), and compound 202a (6.25-50.0 μM) for 30 minutes in a 96-well plate. The culture media were then removed and 100 μL of FBS-free DMEM containing 10% CCK-8 solution was added to each well, and cells were incubated for 2 hours at 37° C. The absorbance at 450 nm was measured by using a microplate reader (see FIG. 8). The cell viability was measured and normalized to the vehicle group. The results are expressed as mean t SEM (n=6).
# [8] = system: RAW 264.7 cells; assay: Cytotoxicity in RAW 264.7 cells (CCK-8); type: cell-based; conditions: concentrations up to 25 μM, 2 hours
# Experimental: In this example, cytoprotective activity of compound 202a against LPS-induced inflammation was evaluated. […] The compounds of the present disclosure were therefore evaluated to determine their anti-inflammatory activities due to H2S release. RAW 264.7 cells were incubated with compound 202a (0-25 μM) for 2 hours, followed by a 24-hour incubation with lipopolysaccharide (LPS, 0.5 μg/mL) to trigger the inflammatory response. The inflammation event usually results in the NO generation, which can be monitored by measuring nitrite (NO2—) accumulation. […] In particular, confluent RAW 264.7 cells were incubated in FBS-free DMEM containing vehicle (0.5% DMSO), compound 202a, BnSH, and compound 204 (10.0-100 μM) for 2 hours in a 96-well plate. The culture media were then removed and 100 μL of FBS-free DMEM containing 10% CCK-8 solution was added to each well, and cells were incubated for 2 hours at 37° C. The absorbance at 450 nm was measured by using a microplate reader (FIG. 9). The cell viability was measured and normalized to the vehicle group. The results are expressed as mean t SEM (n=6).
# [9] = Selectivity of fluorescence turn on to cellular RSONs and thiols; conditions: 10 μM, PBS at physiological pH, 2 hours
# Experimental: Representative Procedure for Evaluating Selectivity of Compound EmbodIments to Cellular RSONs—To 3.00 mL of PBS was added a stock solution of compound 202a (3.00 μL, 10.0 mM in DMSO), followed by the addition of RSON stock solution (30.0 μL, 10.0 mM in H2O). After 2 hours of incubation at room temperature, the solution was excited at 490 nm and the fluorescence intensity (500-650 nm) was measured and recorded by using a Quanta Master 40 spectrofluorometer. For the NEM-pretreated group, NEM (30.0 μL, 1.00 M) was added to PBS (3.00 mL) containing CA (25.0 μg/mL) and Cys (100 μM). The solution was then incubated for 1 hour before adding the compound 202a stock solution (3.00 μL, 10.0 mM in DMSO).
# In this example, fluorescence turn on of compound 202a (10 μM) in the presence of cellular reactive sulfur, oxygen, and nitrogen species (RSONs) (100 μM) was evaluated. […] Compound 202a (10 μM) was incubated with GSH, homocysteine (Hcy), N-acetyl cysteine (NAC), penicillamine (PEN), or bovine serum albumin (BSA) (100 μM), in PBS buffer (pH 7.4, 10 mM) containing CA (25 μg/mL) and the fluorescent intensity was measured after 2 hours. […]
# Compound 202a also (10 μM) was incubated with RSONs (100 μM), such as H2O2, ClO^−, O2^−, TBHP, Ser, Lys, Gly, GSSG, and GSNO, and COS/H2S release was monitored by tracking the fluorescein formation. […]
# [10] = system: HeLa cells; assay: Cellular imaging of H2S delivery in HeLa cells with C7-Az probe; type: cell-based; conditions: compound 50 μM, C7-Az 50 μM, 30 minutes
# Experimental: HeLa cells were then plated in poly-D-lysine coated plates (MatTek) containing 2.00 mL of DMEM and incubated at 37° C. under 5% CO2 for 24 hours. The confluent cells were washed with PBS and then co-incubated with NucRed nuclear dye (2 drops), C7-Az (50.0 μM), and compound 202a (50.0 μM) for 30 minutes. Prior to imaging, the cells were washed with PBS and bathed in 2.00 mL of PBS. Cell imaging was performed on a Leica DMi8 fluorescent microscope. […] To confirm that compound 202a was not cytotoxic, confluent HeLa cells were incubated in FBS-free DMEM containing vehicle (0.5% DMSO), and compound 202a (6.25-50.0 μM) for 30 minutes in a 96-well plate. The culture media were then removed and 100 μL of FBS-free DMEM containing 10% CCK-8 solution was added to each well, and cells were incubated for 2 hours at 37° C. The absorbance at 450 nm was measured by using a microplate reader (see FIG. 8). The cell viability was measured and normalized to the vehicle group. The results are expressed as mean t SEM (n=6).
smiles,measurement,setting,value
SCc1ccccc1 [benzyl mercaptan],anti-inflammatory activity at 25 μM (NO2− production),[1],none of these species exhibited anti-inflammatory activities
O=c1ssc(=O)n1-c1ccc(Cl)cc1 [Compound 404c],COS released on reaction with thiols,"[2]; compound 25 μM, L-cysteine or GSH 500 μM (20 equiv.), CA, MB assay",two equivalents of COS
C1COCCN1.COc1ccc(P(=S)(S)N2CCOCC2)cc1 (centres unmarked) [GYY4137],anti-inflammatory effects at higher concentration and longer incubation,[3],anti-inflammatory effects
same,anti-inflammatory activity at 25 μM (NO2− production),[1],such cytoprotection was not observed
O=C(Oc1ccc2c(c1)Oc1cc(O)ccc1C21OC(=O)c2ccccc21)SSCc1ccccc1 (centres unmarked) [Compound 202d],fluorescence response to Cys,[4],minimal fluorescence enhancement
same,Φ,[5],0.11 ± 0.01
same,ε,[5],"27,300 ± 2500 M^−1cm^−1"
same,λem,[5],514 nm
same,λmax,[5],449 nm
COc1ccc2cc(C(C)C(=O)Oc3ccc(-c4nc(=O)ss4)cc3)ccc2c1 (centres unmarked) [Compound 900],GSH-triggered H2S release,[2],promising H2S release was observed
same,thiol-triggered H2S release in buffer with CTAB,"[2]; compound 50 μM, PBS pH 7.4, CTAB 1.0 mM, CA 25 μg/mL, Cys or GSH 1.0 mM",thiol-triggered H2S release was immediately observed
O=C(Oc1ccc2c(c1)Oc1cc(OC(=O)SSCc3ccccc3)ccc1C21OC(=O)c2ccccc21)SSCc1ccccc1 [Compound 202a],fluorescence with porcine liver esterase,[6],slight fluorescence turn on
same,fluorescent signal in the absence of Cys (stability in aqueous buffer),"[4]; compound 10 μM in PBS, no Cys",No fluorescent signal was observed
same,cytotoxicity in HeLa cells,[7],not cytotoxic
same,cytotoxicity in RAW 264.7 cells,[8],did not induce cytotoxicity
same,stability in PBS in the absence of thiols,[9],stable
"COc1ccc2cc(C(C)C(=O)Oc3ccc(C(N)=S)cc3)ccc2c1 (centres unmarked) [ATB-346, reference compound]",GSH-triggered H2S release,[2],not detected
O=C(Oc1ccc2c(c1)Oc1cc(OC(=O)SCc3ccccc3)ccc1C21OC(=O)c2ccccc21)SCc1ccccc1 [Compound 204],C7-Az (H2S probe) fluorescence in HeLa cells,[10],failed to turn on the fluorescence
same,fluorescence response to Cys,[4],No fluorescence response
same,anti-inflammatory activity at 25 μM (NO2− production),[1],none of these species exhibited anti-inflammatory activities
